Measured values reported in US9233977B2, “Leucine-rich repeat kinase enzyme activity” (Merck Sharp & Dohme Corp., priority 2010, dated 2016).

molecular target: T1, LRRK2 G2019S mutant kinase (Homo sapiens, UniProt Q5S007, G2019S); assay: LRRK2 G2019S LanthaScreen TR-FRET kinase assay; format: biochemical; details: LRRK2 G2019S GST-tagged protein, 75 nM Fluorescein-ERM (LRRKtide), 100 μM ATP, 1 hour at room temperature; read-out: IC50 (potency)
T1 construct: GST; purchased Invitrogen PV4882
Protocol: The final solvent concentration in the assay was 1% DMSO. […] Generation of raw data and workup of data to derive the IC50 (potency) and maximal inhibition at concentrations tested were performed using Merck's Assay Data Analyzer (ADA) software.
The IC50 (potency) was evaluated for the example compounds presented above.

T1 sequence (Q5S007 whole entry G2019S): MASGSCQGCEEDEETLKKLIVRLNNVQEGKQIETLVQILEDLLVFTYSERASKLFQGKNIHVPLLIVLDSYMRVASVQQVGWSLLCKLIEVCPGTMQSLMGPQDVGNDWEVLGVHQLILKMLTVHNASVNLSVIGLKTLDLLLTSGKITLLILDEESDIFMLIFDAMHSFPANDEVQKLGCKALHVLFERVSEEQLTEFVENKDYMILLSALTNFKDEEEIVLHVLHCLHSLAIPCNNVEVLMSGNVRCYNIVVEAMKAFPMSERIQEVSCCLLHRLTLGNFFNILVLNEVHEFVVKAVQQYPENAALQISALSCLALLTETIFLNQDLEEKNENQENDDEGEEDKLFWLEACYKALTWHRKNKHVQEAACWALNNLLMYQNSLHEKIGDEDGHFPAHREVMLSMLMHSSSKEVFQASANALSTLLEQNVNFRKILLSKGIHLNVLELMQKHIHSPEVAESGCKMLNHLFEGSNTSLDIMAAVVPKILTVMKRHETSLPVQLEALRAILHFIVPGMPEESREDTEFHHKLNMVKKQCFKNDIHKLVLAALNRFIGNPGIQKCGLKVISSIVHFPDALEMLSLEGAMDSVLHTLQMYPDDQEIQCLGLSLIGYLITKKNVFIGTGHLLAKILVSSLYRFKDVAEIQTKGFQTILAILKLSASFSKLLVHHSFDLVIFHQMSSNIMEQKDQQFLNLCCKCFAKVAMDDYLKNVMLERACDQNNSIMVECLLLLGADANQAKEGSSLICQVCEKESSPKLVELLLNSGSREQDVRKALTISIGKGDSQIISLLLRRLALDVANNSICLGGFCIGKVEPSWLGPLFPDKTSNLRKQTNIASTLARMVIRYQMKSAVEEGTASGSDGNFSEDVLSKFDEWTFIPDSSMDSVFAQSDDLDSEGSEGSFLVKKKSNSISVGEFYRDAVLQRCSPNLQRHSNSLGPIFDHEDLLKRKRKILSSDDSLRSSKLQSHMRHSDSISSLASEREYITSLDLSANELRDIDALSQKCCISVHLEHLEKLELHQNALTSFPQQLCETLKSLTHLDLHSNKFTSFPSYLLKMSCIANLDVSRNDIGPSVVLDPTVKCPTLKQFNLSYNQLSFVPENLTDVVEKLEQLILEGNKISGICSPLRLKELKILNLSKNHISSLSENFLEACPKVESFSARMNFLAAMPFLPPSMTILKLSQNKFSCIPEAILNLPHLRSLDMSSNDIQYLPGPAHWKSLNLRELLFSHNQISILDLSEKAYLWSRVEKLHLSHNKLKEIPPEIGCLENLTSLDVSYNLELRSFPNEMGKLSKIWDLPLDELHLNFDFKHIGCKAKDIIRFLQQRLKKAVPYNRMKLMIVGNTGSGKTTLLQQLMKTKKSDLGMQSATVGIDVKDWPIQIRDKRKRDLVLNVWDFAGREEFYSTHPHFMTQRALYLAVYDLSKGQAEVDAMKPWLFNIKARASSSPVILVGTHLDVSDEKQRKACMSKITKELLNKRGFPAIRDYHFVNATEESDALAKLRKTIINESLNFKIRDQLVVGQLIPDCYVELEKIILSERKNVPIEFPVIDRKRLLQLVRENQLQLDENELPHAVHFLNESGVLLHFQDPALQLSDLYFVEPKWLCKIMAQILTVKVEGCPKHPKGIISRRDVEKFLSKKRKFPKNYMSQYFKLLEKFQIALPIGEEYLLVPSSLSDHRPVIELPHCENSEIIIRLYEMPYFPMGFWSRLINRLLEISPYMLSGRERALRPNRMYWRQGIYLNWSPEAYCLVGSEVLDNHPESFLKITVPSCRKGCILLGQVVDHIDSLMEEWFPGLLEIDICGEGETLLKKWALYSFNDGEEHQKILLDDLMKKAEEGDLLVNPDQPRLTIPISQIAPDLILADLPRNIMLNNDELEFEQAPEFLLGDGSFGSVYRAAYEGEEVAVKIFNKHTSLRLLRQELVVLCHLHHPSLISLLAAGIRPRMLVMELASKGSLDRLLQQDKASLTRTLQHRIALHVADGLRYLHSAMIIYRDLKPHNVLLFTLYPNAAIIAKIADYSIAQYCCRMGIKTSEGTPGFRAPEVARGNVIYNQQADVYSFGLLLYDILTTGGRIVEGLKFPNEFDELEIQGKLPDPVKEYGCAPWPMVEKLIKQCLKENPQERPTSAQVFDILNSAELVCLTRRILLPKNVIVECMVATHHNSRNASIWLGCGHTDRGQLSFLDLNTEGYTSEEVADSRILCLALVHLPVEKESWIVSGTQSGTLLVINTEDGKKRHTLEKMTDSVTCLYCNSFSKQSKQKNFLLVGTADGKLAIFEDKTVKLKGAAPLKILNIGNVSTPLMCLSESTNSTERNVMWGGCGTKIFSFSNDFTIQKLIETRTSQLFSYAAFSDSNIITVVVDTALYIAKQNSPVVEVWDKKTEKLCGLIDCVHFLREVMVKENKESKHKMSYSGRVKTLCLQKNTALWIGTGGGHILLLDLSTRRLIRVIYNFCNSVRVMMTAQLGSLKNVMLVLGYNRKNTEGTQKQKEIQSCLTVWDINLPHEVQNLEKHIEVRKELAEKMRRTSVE

Structure (SMILES)	IC50
O=C1NC(C(F)(F)F)Cc2c(-c3cc[nH]n3)sc(SC3CCCC3)c21 (stereo not shown) [Example 35, 6-trifluoromethyl-3-(cyclopentylsulfanyl)-1-(1H-pyrazol-3-yl)-6,7-dihydrothieno[3,4-c]pyridin-4(5)-one]	0.16 µM
CC1CNC(=O)c2c(SC3CCCC3)sc(-c3cc[nH]n3)c21 (stereo not shown) [Example 36, 7-methyl-3-(cyclopentylsulfanyl)-1-(1H-pyrazol-3-yl)-6,7-dihydrothieno[3,4-c]pyridin-4(5)-one]	0.052 µM
CCCCNCCSc1sc(-c2cc[nH]n2)c2c1C(=O)NCC2 [Example 37, 3-{[2-(butylamino)ethyl]sulfanyl}-1-(1H-pyrazol-3-yl)-6,7-dihydrothieno[3,4-c]pyridin-4(5)one]	5.2 µM
O=C1NCCc2c(-c3cc[nH]n3)sc(SCCCO)c21 [Example 38]	0.64 µM
CCN(CC)CCSc1sc(-c2cc[nH]n2)c2c1C(=O)NCC2 [Example 39, 3-{[2-{diethylamino)ethyl]sulfanyl}-1-(1H-pyrazol-3-yl)-6,7-dihydrothieno[3,4-c]pyridin-4(5)-one]	5.7 µM
NCCSc1sc(-c2cc[nH]n2)c2c1C(=O)NCC2 [Example 40]	4.7 µM
CC(C)Sc1sc(-c2cc[nH]n2)c2c1C(=O)NCC2 [Example 41, 3-[2-(1-methyl)ethylsulfanyl]-1-(1H-pyrazol-3-yl)-6,7-dihydrothieno[3,4-c]pyridin-4(5)-one]	0.46 µM
CCSc1sc(-c2cc[nH]n2)c2c1C(=O)NCC2 [Example 42, 3-ethylsulfanyl-1-(1H-pyrazol-3-yl)-6,7-dihydrothieno[3,4-c]pyridin-4(5)-one]	0.36 µM
CCCSc1sc(-c2cc[nH]n2)c2c1C(=O)NCC2 [Example 43, 3-propylsulfanyl-1-(1H-pyrazol-3-yl)-6,7-dihydrothieno[3,4-c]pyridin-4(5)-one]	0.25 µM
CCC(C)CSc1sc(-c2cc[nH]n2)c2c1C(=O)NCC2 (stereo not shown) [Example 44, 3-[(2-methyl)butylsulfanyl]-1-(1H-pyrazol-3-yl)-6,7-dihydrothieno[3,4-c]pyridin-4(5)-one]	0.13 µM
O=C1NCCc2c(-c3cc[nH]n3)sc(SC3CCCCC3)c21 [Example 45, 3-(cyclohexylsulfanyl)-1-(1H-pyrazol-3-yl)-6,7-dihydrothieno[3,4-c]pyridin-4(5)-one]	0.38 µM
O=C(O)CSc1sc(-c2cc[nH]n2)c2c1C(=O)NCC2 [Example 46, 1-{[4-oxo-1-(1H-pyrazol-3-yl)-4,5,6,7-tetrahydrothieno[3,4-c]pyridin-3-yl]sulfanyl}acetic acid]	3.1 µM
O=C1NCCc2c(-c3cc[nH]n3)sc(SCCO)c21 [Example 47]	0.58 µM
CCC(C)CSc1sc(-c2cc[nH]n2)c2c1C(=O)N[C@@H](C)C2 (stereo partly shown) [Example 48]	0.055 µM
CCC(C)CSc1sc(-c2cc[nH]n2)c2c1C(=O)N[C@H](C)C2 (stereo partly shown) [Example 49]	0.12 µM
C[C@@H]1Cc2c(-c3cc[nH]n3)sc(SC3(C(=O)O)CCCC3)c2C(=O)N1 [Example 50, 1-{[(6R)-6-methyl-4-oxo-1-(1H-pyrazol-3-yl)-4,5,6,7-tetrahydrothieno[3,4-c]pyridin-3-yl]sulfanyl}cyclopentanecarboxylic acid]	3.4 µM

Structure (SMILES)	IC50
C[C@H]1Cc2c(-c3cc[nH]n3)sc(SCC(=O)O)c2C(=O)N1 [Example 51, (6S)-6-methyl-1-{[4-oxo-1-(1H-pyrazol-3-yl)-4,5,6,7-tetrahydrothieno[3,4-c]pyridin-3-yl]sulfanyl}acetic acid]	2.2 µM
C[C@@H]1Cc2c(-c3cc[nH]n3)sc(SCC(=O)O)c2C(=O)N1 [Example 52, (6R)-6-methyl-1-{[4-oxo-1-(1H-pyrazol-3-yl)-4,5,6,7-tetrahydrothieno[3,4-c]pyridin-3-yl]sulfanyl}acetic acid]	2.7 µM
O=C1NCCc2c(-c3cc[nH]n3)sc(Sc3ccccc3)c21 [Example 53, 3-phenylsulfanyl-1-(1H-pyrazol-3-yl)-6,7-dihydrothieno[3,4-c]pyridin-4(5)-one]	1.5 µM
CSc1sc(-c2cc[nH]n2)c2c1C(=O)N(C(C)C)CC2 [Example 54, 3-(Methylsulfanyl)-5-(propan-2-yl)-1-(1H-pyrazol-3-yl)-6,7-dihydrothieno[3,4-c]pyridin-4(5H)-one]	3.5 µM
CSc1sc(-c2cc[nH]n2)c2c1C(=O)N(CCc1ccccc1)CC2 [Example 55, 3-(methylsulfanyl)-5-(2-phenethyl)-1-(1H-pyrazol-3-yl)-6,7-dihydrothieno[3,4-c]pyridin-4(5)-one]	1.2 µM
CSc1sc(-c2cc[nH]n2)c2c1C(=O)N(Cc1ccnc3ccccc13)CC2 [Example 56, 3-(methylsulfanyl)-1-(1H-pyrazol-3-yl)-5-(quinolin-4-ylmethyl)-6,7-dihydrothieno[3,4-c]pyridin-4(5)-one]	3.7 µM
CSc1sc(-c2cc[nH]n2)c2c1C(=O)N(Cc1ccc(Br)cn1)CC2 [Example 57, 5-[(5-bromopyridin-2-yl)methyl]-3-(methylsulfanyl)-1-(1H-pyrazol-3-yl)-6,7-dihydrothieno[3,4-c]pyridin-4(5)-one]	3.8 µM
CSc1sc(-c2cc[nH]n2)c2c1C(=O)N(Cc1cccnc1Cl)CC2 [Example 58, 5-[(2-chloropyridin-3-yl)methyl]-3-(methylsulfanyl)-1-(1H-pyrazol-3-yl)-6,7-dihydrothieno[3,4-c]pyridin-4(5)-one]	3 µM
CSc1sc(-c2cc[nH]n2)c2c1C(=O)N(CCCC#N)CC2 [Example 59, 4-[3-(methylsulfanyl)-4-oxo-1-(1H-pyrazol-3-yl)-6,7-dihydrothieno[3,4-]pyridin-5(4H)-yl]butanenitrile]	3.7 µM
CSc1sc(-c2cc[nH]n2)c2c1C(=O)N(CCCCO)CC2 [Example 60, 5-(4-hydroxybutyl)-3-(methylsulfanyl)-1-(1H-pyrazol-3-yl)-6,7-dihydrothieno[3,4-c]pyridin-4(5)-one]	1.7 µM
CSc1sc(-c2cc[nH]n2)c2c1C(=O)N(Cc1cccnc1)CC2 [Example 61, 5-[(3-pyridinyl)methyl]-3-(methylsulfanyl)-1-(1H-pyrazol-3-yl)-6,7-dihydrothieno[3,4-c]pyridin-4(5)-one]	2.1 µM
CSc1sc(-c2cc[nH]n2)c2c1C(=O)N(CC1CCNC1)CC2 (stereo not shown) [Example 62, 3-(methylsulfanyl)-1-(1H-pyrazol-3-yl)-5-(pyrrolidin-3-ylmethyl)-6,7-dihydrothieno[3,4-c]pyridin-4(5H)-one]	4.3 µM
CSc1sc(-c2cc[nH]n2)c2c1C(=O)N(CC1CCCCO1)CC2 (stereo not shown) [Example 63, 5-[(2-tetrahydropyranyl)methyl]-3-(methylsulfanyl)-1-(1H-pyrazol-3-yl)-6,7-dihydrothieno[3,4-c]pyridin-4(5)-one]	8.4 µM
CSc1sc(-c2cc[nH]n2)c2c1C(=O)N(CCCCc1ccccc1)CC2 [Example 64, 5-[(4-phenyl)butyl]-3-(methylsulfanyl)-1-(1H-pyrazol-3-yl)-6,7-dihydrothieno[3,4-c]pyridin-4(5)-one]	5 µM
CSc1sc(-c2cc[nH]n2)c2c1C(=O)N(CC1CCCNC1)CC2 (stereo not shown) [Example 65, 3-(methylsulfanyl)-1-(1H-pyrazol-3-yl)-5-(piperidin-3-ylmethyl)-6,7-dihydrothieno[3,4-c]pyridin-4(5H)-one]	3.4 µM
